From patent US20030050293A1, “Use of dehydroepiandrosterone, its precursors and derivatives, by oral administration, as hydrating agents with direct action” (priority 2000, published 2003) come the findings set out here.

In assay [1] the test system is skin on the ventral side of the forearm of healthy volunteers. As to the kind of experiment: Evaluation of the moisturization of the skin by electrical conductance (Dermodiag), randomized double-blind clinical study. Format: in vivo, human. Particulars: for moisturization of the skin vs placebo (Wilcoxon test): 12 months oral 50 mg daily; for Conductance: 50 mg daily oral. As to the method: (§1) The evaluation was carried out using a randomized double-blind clinical study among 280 individuals (140 men and 140 women). The inclusion criteria was as follows: healthy volunteers, of both sexes, free of any severe pathological condition and 60 to 80 years old.
(§2) The treatment consisted, for 12 months, of a daily dose of 50 mg of DHEA, taken in the morning, in the form of a breakable tablet, for half of the individuals, or of a placebo for the other half of the individuals.
The moisturization of the skin on the ventral side of the forearm is measured, blind, at the start of treatment (T0) and at the end of treatment (T12), by the same clinician, using a Dermodiag®, which is a device described in patent U.S. Pat. No. 5,001,436. The characteristics of the device are as follows: outlet impedance: 1.4 kOhms and working frequency 10 MHz. The method used is that described by J. L. Lévêque, Soc. Cosmet. Chem. (1983), 34, 419-428.
This device makes it possible to evaluate the state of moisturization (water content of the superficial layers of the epidermis) by measuring electrical conductance. The conductance is measured using an electrode applied to the skin for 10 seconds. The conductance value is the result of the mean of 6 individual measurements per measurement time.
(§3) The statistical analysis is performed using the Wilcoxon test.

The subject of assay [2] is sebaceous glands of the skin of healthy volunteers. As to the kind of experiment: Evaluation of the production of sebum (Sebutape patches, number of spots by image analysis), randomized double-blind clinical study. Format: in vivo, human. Particulars: for variation in seborrhea vs placebo (Wilcoxon test): 12 months oral 50 mg daily; for Number of spots: 50 mg daily oral. As to the method:
as §1, §2
The production of sebum is measured at the start of treatment (T0) and at the end of treatment (T12) according to the techniques described by A. M. Kligman et al., J. Soc. Cosmet. Chem. (1986), 37, 369-373 and by K. M. Nordstrom et al., J. Invest. Dermatol. (1986), 87, 260-264.
White adhesive microporous patches (Sebutape®, Cuderm Corporation, Dallas, Tex., USA) described in U.S. Pat. No. 4,532,937 are used; the patches are applied in a standardized manner to the skin, which has been wiped 10 times, beforehand, with cotton soaked in 70° alcohol in order to remove any fat. The lipids which are passively absorbed onto the patches are visualized by the presence of transparent spots, themselves measured by image analysis.
Each spot represents an active sebaceous gland.
as §3

Setting [3] is: men, T0 (start of treatment), DHEA group.
Where [4] appears, read: men, T12 (end of 12 months treatment).
[5] abbreviates: women, T0 (start of treatment), DHEA group.
The mark [6] stands for this setting: women, T12 (end of 12 months treatment).

The structures appear in SMILES notation.

In the case of `C[C@]12CC[C@H](O)CC1=CC[C@@H]1[C@@H]2CC[C@]2(C)C(=O)CC[C@@H]12` [DHEA, Dehydroepiandrosterone], the “moisturization of the skin vs placebo (Wilcoxon test)” value in assay [1] (men, p=0.03) is recorded as “significant improvement”; in assay [1] (women, p=0.44) it was “without significant variation in the moisturization of the skin”. Besides, the Conductance in assay [1] (setting [3]) was 69; in assay [1] (setting [4]), 86; in assay [1] (setting [5]) it was 64; in assay [1] (setting [6]) it was 84. For the same molecule, the “improvement of the moisturization of the skin, measured by conductance” value in assay [1] (men, treated group, T12 vs T0, 50 mg daily oral (placebo +21%, p=0.03)) was 26%. Also, the “variation in seborrhea vs placebo (Wilcoxon test)” value in assay [2] (men, p=0.46) is “no significant variation in seborrhea”; in assay [2] (women, p=0.0001) it was “significant variation in seborrhea”. The Number of spots was determined as 55 in assay [2] (setting [3]), 140 in assay [2] (setting [4]), 2 in assay [2] (setting [5]) and 56 in assay [2] (setting [6]).
